# Test results as given in patent publication EP0840781B1, “METHODS AND DEVICES FOR THE REMOVAL OF PSORALENS FROM BLOOD PRODUCTS” (Cerus Corporation, priority 1995, dated 1996).
# Columns and labels:
# [1] = test system: GMP-140 expression on platelets; experiment: GMP-140 (p-selectin) expression on platelets, CD62 antibody, flow cytometry; assay type: cell-based, human; conditions: T = test unit (150 µM S-59, 3 Joules/cm^2 UVA, RD 8 hours on day 1)
# Protocol: (§1) To measure the effects of the present compounds and methods of decontamination on platelet function using these four indicators, four samples were prepared for each compound tested, two control samples and two containing compound. […] These were each transferred under sterile conditions to 50 ml centrifuge tubes, then aliquots of each unit were transferred into a second set of 50 ml sterile centrifuge tubes. […] The samples were pipetted gently up and down to mix. […] Samples were treated in one of two different sized bags, having either 3 ml or 8 ml capacity. […] For each compound tested, two control samples without compound were prepared by again removing aliquots of platelet concentrate (17 ml if using an 8 ml bag, 4 ml if using a 3 ml bag) from the same one of the first set of 50 ml centrifuge tubes from which the compound sample was drawn, and dividing into Medibags, as before. […]
# platelet concentrate = experiment: Maintenance of pH of platelet concentrate; assay type: cell-based, human; conditions: T = test unit (150 µM S-59, 3 Joules/cm^2 UVA, RD 8 hours on day 1)
# Protocol: as §1
# [2] = test system: platelets suspended in 35% plasma/65% PAS III; experiment: Partitioning and distribution of S-59 in platelet concentrate before and after UVA (3H-S-59, HPLC); conditions: C0 = 50 µM (FIG. 25A)
# Description: […] When designing a "capture" or "scrub" device for psoralen removal, an important consideration is the identification and quantification of the residual levels of low molecular weight photoproducts. Several properties of the platelet mixture (e.g., lipid content, platelet content, hemoglobin/RBC content) can affect the final partitioning of psoralen and the amount of each photoproduct that must be removed during the capture or scrub process.
# Upon addition of S-59 to platelets, the S-59 rapidly partitions, establishing an equilibrium between S-59 in the plasma and S-59 within the platelets. […] In addition, higher percentages of S-59 will partition to the platelets if long incubation periods (e.g., greater than 60 minutes) occur between the addition of S-59 and illumination with UVA. The amount of S-59 which partitions to the platelets ultimately determines how much S-59 remains associated with platelets, how much is associated with plasma macromolecules, and how much remains as free photoproduct.
# During the UVA illumination process, S-59 undergoes a photochemical reaction to form several low molecular weight photoproducts in addition to associating with macromolecules in both the platelet and the plasma fractions. […]
# The S-59 which is not amenable to removal by the scrub/capture process can also be monitored using ^3H-labeled S-59. […]
# platelets [3] = experiment: Platelet shape change; assay type: cell-based, human; conditions: T = test unit (150 µM S-59, 3 Joules/cm^2 UVA, RD 8 hours on day 1)
# Protocol: Platelets are able to regain their ability to change shape following transfer from the RD and incubation in a PL 2410 Plastic container (Baxter) in an equal volume of autologous plasma.
# (§2) For the evaluation of in vitro platelet function, platelet samples were withdrawn from both the control and test units before treatment and after treatment on days 2, 5, and 7. The following parameters were analyzed: pH, pO2, pCO2, bicarbonate concentration, platelet count, morphology, aggregation, platelet shape change, hypotonic shock response, lactate production, glucose consumption, ATP secretion, p-selectin expression, and microvesicle formation. Several of these assays, including pH, morphology score, platelet shape change, and hypotonic shock response, have been reported in the literature to correlate with in- vivo post-transfusion recovery and survival. The Student's paired t-test was used for statistical analysis.
# platelets [4] = experiment: Hypotonic shock response (HSR) of platelets; assay type: cell-based, human; conditions: T = test unit (150 µM S-59, 3 Joules/cm^2 UVA, RD 8 hours on day 1)
# Protocol: as §2
smiles,measurement,setting,value
"Cc1oc2c(C)c3oc(=O)cc(C)c3cc2c1COCCN [Compound 2, 4'-(4-amino-2-oxa)butyl-4,5',8-trimethylpsoralen]",(%) p-Selectin-Positive,[1]; Day 2,49±5 %
same,(%) p-Selectin-Positive,[1]; Day 5,58±5%
same,(%) p-Selectin-Positive,[1]; Day 7,60±7%
same,pH,platelet concentrate; Day 2,6.94±0.05
same,pH,platelet concentrate; Day 5,6.92±0.06
same,pH,platelet concentrate; Day 7,6.91±0.05
same,time to S-59 equilibrium (uptake by platelets),[2],approximately two
same,Platelet Shape Change,platelets [3]; Day 2,1.0±0.1
same,Platelet Shape Change,platelets [3]; Day 5,0.9±0.1
same,Platelet Shape Change,platelets [3]; Day 7,0.9±0.3
same,(%) HSR,platelets [4]; Day 2,52±5 %
same,(%) HSR,platelets [4]; Day 5,45±3%
same,(%) HSR,platelets [4]; Day 7,48±8%
